Source: patent US7897637B2, “Methods of using flavonoids to enhance memory” (The Salk Institute for Biological Studies, priority 2006, dated 2011)
Where two headings read alike, the source gives them in different places.

What was measured:
[1] = Trolox Equivalent Activity Concentration (ABTS decolorization assay); details: Trolox as reference
Experimental: To determine if the protection seen with the different fisetin derivatives correlated with their antioxidant properties, their Trolox Equivalent Activity Concentration (TEAC) values were determined. In this procedure, a compound is compared to Trolox, a water-soluble vitamin E analog, for its ability to reduce the radical cation of ABTS in aqueous solution. As reported previously, fisetin has a TEAC value of ˜3 (Table II). None of the derivatives had TEAC values in this range despite, in some cases, showing better protection against oxidative stress-induced death. Thus, there was no correlation with antioxidant activity as defined by TEAC value and protection in this system.
TEAC values for the flavonoids were determined according to (Re et al. Free Rad. Biol. Med., 26:1231-7, 1999) but modified for a plate reader. Briefly, 250 μl of 2,2′-azinobis(3-ethylbenzothiazoline 6-sulfonate)(ABTS) treated overnight with potassium persulfate and diluted to an OD of ˜0.7 at 734 nm was added to 2.5 μl of a flavonoid solution in ethanol. The change in absorbance due to the reduction of the ABTS radical cation was measured at 734 nm for 4 minutes. To calculate the TEAC, the gradient of the plot of the percentage inhibition of absorbance vs. concentration for the flavonoid in question is divided by the gradient of the plot for Trolox.

HT22 cells = assay: Protection of HT22 cells from oxidative glutamate toxicity (MTT assay); type: cell-based, mouse; details: for EC50 / Emax: Mus musculus, 5 mM glutamate, MTT assay; for EC50: HT-22, 24 h, read-out: EC50 (μM), protection from oxidative-stress induced death; for EC50 / Emax / effect of higher levels of BSO on protection: 24 hours; for Emax: HT-22, read-out: Maximal Efficacy, protection from oxidative-stress induced death; for effect of higher levels of BSO on protection: 5 mM glutamate + 1 mM BSO, MTT
From the text: Fisetin is effective at protecting nerve cells from oxidative stress-induced death (Ishige et al., Free Radic. Biol. Med., 30:433-446, 2001). This Example illustrates the structure-activity relationship between fisetin derivatives and neuroprotection in a model of oxidative glutamate toxicity using mouse HT22 cells. This pathway of programmed cell death is initiated by the addition of glutamate to the extracellular medium. Glutamate inhibits the uptake of cystine which is required for glutathione (GSH) biosynthesis, resulting in the depletion of GSH in neurons (for review see Tan et al., Curr. Top. Med. Chem., 1:497-506, 2001). Subsequently, this decrease in cellular GSH results in the production of reactive oxygen species (ROS) by mitochondria. The ROS accumulation then causes Ca^+2 influx from the extracellular medium which leads to cell death.
HT22 cells were untreated (Ct) or treated with 10 μM fisetin, 25 μM 3,3′-DHF, 25 μM 3,4′-DHF, 2.5 μM 3′,4′-DHF, 2.5 μM 3,3′,4′-THF 25 μM 3,7,3′-THF, 25 μM 3,7,4′-THF or 10 μM 7,3′,4′-THF in the presence of 5 mM glutamate±50 μM PD98059. Twenty four (24) hours later cell survival was measured by the MTT assay.
HT22 cells were untreated (Ct) or treated with 10 μM fisetin, 25 μM 3,3′-DHF. […] Protection by all of the other flavonoids was unaffected by BSO.
Cell viability was determined by a modified version of the 3-(4,5-dimethylthiazol-2-yl)-2,5-diphenyl tetrazolium bromide (MTT) assay based on the standard procedure (Hansen et al., J. Immunol. Meth., 119:203-10, 1989). Briefly, cells were seeded onto 96-well microtiter plates at a density of 5×10^3 cells per well. The next day, the medium was replaced with DMEM supplemented with 7.5% DFCS and the cells were treated with the different flavonoids alone or in the presence of 5 mM glutamate. Twenty four hours later, the medium in each well was aspirated and replaced with fresh medium containing 2.5 μg/ml MTT. After 4 hours of incubation at 37° C., cells were solubilized with 100 μl of a solution containing 50% dimethylformamide and 20% SDS (pH 4.7). The absorbance at 570 nm was measured on the following day with a microplate reader (Molecular Devices). Results obtained from the MTT assay correlated directly with the extent of cell death as confirmed visually. Controls employing wells without cells were used to determine the effects of the agents upon the assay chemistry.

PC12 cells [2] = assay: PC12 cell differentiation assay (neurite outgrowth); type: cell-based; details: for EC50 / Emax: Rattus norvegicus, PC-12, PC12 cells in N2 medium, 24 hours, neurites scored; for EC50: read-out: EC50 (μM), induction of PC12 cell differentiation; for Emax: read-out: Maximal Efficacy, induction of PC12 cell differentiation
Experimental: Four trihydroxyflavones (THF) and three dihydroxyflavones (DHF) which lack one or two, respectively, of the hydroxyl groups found in fisetin were tested for their ability to induce the differentiation of PC12 cells. Differentiation was assessed by scoring neurite outgrowth (Sagara et al., J. Neurochem., 90:1144-1155, 2004). […]
PC12 cells in N2 medium were treated with flavonoids for 24 hours at which time the cells were scored for the presence of neurites. PC12 cells produce neurites much more rapidly when treated in N2 medium than when treated in regular growth medium (Kimura et al., J. Cell Biol., 116:777-83, 1992). For each treatment, 100 cells in each of three separate fields were counted. Cells were scored positive if one or more neurites>1 cell body diameter in length were observed.

Nrf2 and HO-1 = Nrf2 and HO-1 induction in HT22 cells (immunoblotting); type: cell-based, mouse; details: for increasing the levels of Nrf2 and inducing HO-1 synthesis: HT22 cells, 10-25 μM, 4 hours (Nrf2), 24 hours (HO-1)
Experimental: Since the ability to activate the ARE could be important for some of the beneficial effects of flavonoids such as fisetin, it was determined which, if any, of the fisetin derivatives could activate the ARE and induce the synthesis of downstream proteins such as HO-1. HT22 cells were untreated (control) or treated with 10 μM fisetin, 25 μM 3,3′DHF, 25 μM 3,4′-DHF, 10 μM 3′,4′-DHF, 10 μM 3,3′,4′-THF, 25 μM 3,7,3′-THF, 25 μM 3,7,4′-THF or 10 μM 7,3′,4′-THF for 4 hours. Nuclei were prepared and equal amounts of protein were analyzed by SDS-PAGE and immunoblotting with anti-Nrf-2 antibodies.
ERK activation is implicated in the induction of Nrf2 by certain stimuli in some cell types. To determine if ERK activation plays a role in the induction of Nrf2 and HO-1 by fisetin and its derivatives, cells were pretreated with PD98059 prior to the addition of the flavonoids to the cells. HT22 cells then were untreated (control) or treated for 24 hours with 10 μM fisetin, 25 μM 3,3′-DHF, 25 μM 3,4′-DHF, 10 μM 3′,4′-DHF, 10 μM 3,3′,4′-THF, 25 μM 3,7,3′-THF, 25 μM 3,7,4′-THF or 10 μM 7,3′,4′-THF. Cell lysates were prepared and equal amounts of cellular protein were analyzed by SDS-PAGE and immunoblotting with anti-HO-1 antibodies. Immunoblotting with anti-actin was used as a loading control.
For immunoblotting of HO-1, untreated and flavonoid-treated HT22 cells from the same density cultures as used for the cell death assays were washed twice in cold phosphate-buffered saline (PBS) then scraped into lysis buffer containing 50 mM HEPES, pH 7.4, 150 mM NaCl, 50 mM NaF, 1.5 mM MgC2, 1 mM EGTA, 10% glycerol, 1% Triton X-100, 10 mM sodium pyrophosphate, 1 mM Na3VO4, 1 mM phenylmethylsulfonyl fluoride (PMSF), 15 μg/ml aprotinin, 1 μg/ml pepstatin, and 5 μg/ml leupeptin. Lysates were incubated at 4° C. for 30 minutes, and then cleared by centrifugation at 14,000 rpm for 10 minutes. For immunoblotting of Nr12, nuclear extracts were prepared as described (Schreiber et al., Nuc. Acids Res., 17:6419, 1989) from untreated and flavonoid-treated cells. […] Protein concentrations were determined using the BCA protein assay (Pierce). Equal amounts of protein were solubilized in 2.5×SDS sample buffer, separated on 10% SDS polyacrylamide gels and transferred to nitrocellulose. The primary antibodies used were: anti-Nrf2 (#SC13032; 1/1000) from Santa Cruz Biotechnology (Santa Cruz, Calif.) and anti-HO-1 (#SPA-896; 1/5000) from Stressgen (Victoria, BC Canada).

GSH = assay: Total cellular GSH levels in HT22 cells; type: cell-based, mouse; details: 8 hours
Experimental: The effects of fisetin derivatives on cellular GSH levels was then determined. HT22 cells were untreated (Ct) or treated with 10 μM fisetin, 25 μM 3,3′-DHF, 25 μM 3,4′-DHF, 2.5 μM 3′,4′-DHF, 2.5 μM 3,3′,4′-THF, 25 μM 3,7,3′-THF, 25 μM 3,7,4′-THF or 10 μM 7,3′,4′-THF alone or in the presence of 5 mM glutamate. After 8 hours cellular levels of total GSH were determined as described in Example 4. The GSH level of the control sample (31.5±10 nmoles/mg protein) was taken as 100%.
Total intracellular GSH/GSSG was determined using whole cell lysates from untreated, glutamate treated, flavonoid treated and glutamate plus flavonoid treated cells as described (Maher and Hanneken, Invest. Opthalmol. Vis. Sci., 46:749-57, 2005, herein incorporated by reference as to the method) and normalized to total cellular protein.

PC12 cells [3] = details: cited from earlier work; for EC50: PC12 cells, read-out: EC50 for differentiation; for EC50 / differentiation of the cells induced at best: Sagara et al. 2004
ERK2 (p42) = ERK2 (p42) phosphorylation in hippocampal slices (immunoblotting, densitometry); type: cell-based, rat; details: inhibitor alone (50 μM PD98059 or 10 μM U0126, 30 minutes)
Experimental: (§1) Western blots panels A and B) of hippocampal slices treated with (A) 1 μM fisetin or (B) pretreated for 30 minutes with either 50 μM PD98059 (PD) or 10 μM U0126 (U) before the addition of 1 μM fisetin for 5 minutes, which blots were probed with the indicated antibodies.
(§2) Hippocampal slices in artificial cerebral spinal fluid (ACSF) were treated with either 1 μM fisetin for 5-20 minutes or pretreated for 30 minutes with either 50 μM PD98059 (PD) or 10 μM U0126 (J) before the addition of 1 μM fisetin for 5 minutes. Equal amounts of protein were analyzed by SDS-PAGE and immunoblotting with antibodies to phospho-ERK and phospho-CRFB along with antibodies to the unphosphorylated forms of the proteins. The average phosphoprotein signal from the blots was quantified by densitometry and normalized to total protein was plotted±S.D.

ERK1 (p44) = ERK1 (p44) phosphorylation in hippocampal slices (immunoblotting, densitometry); type: cell-based, rat; details: inhibitor alone (50 μM PD98059 or 10 μM U0126, 30 minutes)
Experimental: as §1, §2

CREB = CREB phosphorylation in hippocampal slices (immunoblotting, densitometry); type: cell-based, rat; details: inhibitor alone (50 μM PD98059 or 10 μM U0126, 30 minutes)
Experimental: as §1, §2

| SMILES | TEAC [1] | EC50 (HT22 cells; HT22 cells) [µM] | Emax (HT22 cells; HT22 cells) [%] | EC50 (PC12 cells [2]) [µM] | Emax (PC12 cells [2]) [%] | EC50 (PC12 cells [3]) [µM] | differentiation of the cells induced at best (PC12 cells [3]) [%] | other results |
| --- | --- | --- | --- | --- | --- | --- | --- | --- |
| O=c1c(O)c(-c2cccc(O)c2)oc2ccccc12 [3,3′-DHF, 3,3′-dihydroxyflavone] | 1.01 ± 0.01 | 12 | > 80 | 10 | 40 to 50 |  |  |  |
| O=c1c(O)c(-c2ccc(O)cc2)oc2ccccc12 [3,4′-DHF, 3,4′-dihydroxyflavone] | 0.62 ± 0.06 | 10 | > 70 | 20 | 50 to 60 |  |  | effect of higher levels of BSO on protection (HT22 cells): reduced protection; ability to induce differentiation (PC12 cells [2]; PC12 cells): slightly less efficacious and potent than fisetin; increasing the levels of Nrf2 and inducing HO-1 synthesis (Nrf2 and HO-1): fairly effective |
| O=c1c(O)c(-c2cccc(O)c2)oc2cc(O)ccc12 [3,7,3′-THF, 3,3′,7-trihydroxyflavone] | 1.55 ± 0.34 | 17 | > 90 | 15 | 40 to 50 |  |  |  |
| O=c1c(O)c(-c2ccc(O)cc2)oc2cc(O)ccc12 [3,7,4′-THF, 3,4′,7-trihydroxyflavone] | 1.01 ± 0.10 | 12.5 | > 90 | 10 | 70 to 80 |  |  | increasing the levels of Nrf2 and inducing HO-1 synthesis (Nrf2 and HO-1): fairly effective; effect of inhibition of ERK activation (PD98059) on Nrf2 and HO-1 induction (Nrf2 and HO-1; PD98059 pretreatment): reduced |
| O=c1cc(-c2ccc(O)c(O)c2)oc2cc(O)ccc12 [7,3′,4′-THF, 3′,4′,7-trihydroxyflavone] | 0.89 ± 0.04 | 5 | > 80 | 10 | 50 to 60 |  |  | GSH levels in the presence of oxidative stress (GSH; 5 mM glutamate): could not maintain GSH levels; basal levels of GSH (GSH; flavonoid alone): raised the basal levels of GSH; effect of higher levels of BSO on protection (HT22 cells): reduced protection; protection from oxidative stress-induced death (HT22 cells; HT22 cells, glutamate): equal to or more effective than fisetin |
| O=c1cc(-c2ccc(O)c(O)c2)oc2cc(O)cc(O)c12 [Iuteolin, 5,7,3′,4′-tetrahydroxyflavone] |  |  |  |  |  | 10 | 50 |  |
| N#CC(=C(/N)Sc1ccccc1N)/C(C#N)=C(\N)Sc1ccccc1N [U0126, reference compound] |  |  |  |  |  |  |  | p42 phosphoprotein signal normalized to total protein (ERK2 (p42)): 0.30±0.05; p44 phosphoprotein signal normalized to total protein (ERK1 (p44)): 0.13±0.06; CREB phosphoprotein signal normalized to total protein (CREB): 0.71±0.31 |
| COc1cc(-c2oc3cc(O)cc(O)c3c(=O)c2O)ccc1O [isorhamnetin, 3′-methoxy-3,5,7,4′-tetrahydroxyflavone] |  |  |  |  |  | 10 | 50 |  |
| O=c1c(O)c(-c2cc(O)c(O)c(O)c2)oc2cc(O)cc(O)c12 [myricetin] |  |  |  |  |  |  |  | differentiation promoting activity (PC12 cells [3]; earlier flavonoid comparison): completely ineffective |
| O=c1c(O)c(-c2ccc(O)c(O)c2)oc2cc(O)cc(O)c12 [quercetin, 3,5,7,3′,4′-pentahydroxyflavone] |  |  |  |  |  | 10 | 50 |  |
